Laboratory results from ChEMBL document CHEMBL1140062, “Inactivation of NF-kappaB components by covalent binding of (-)-dehydroxymethylepoxyquinomicin to specific cysteine residues” (J Med Chem, 2008).
The source made the active and inactive calls. No cut-off for these calls is given here.

Columns and labels:
[1] = Inhibition of DNA binding activity of NF-kappaB p65 (1-325) Rel subunit at 20 uM by EMSA
[2] = system: Transcription factor p65 (Homo sapiens), Q04206 [C38S]; assay: Inhibition of DNA binding activity of NF-kappaB p65 (1-325) C38S mutant by MALDI-TOF MS analysis
[3] = system: Transcription factor p65 (Homo sapiens), Q04206 [C38S]; assay: Inhibition of TNF-alpha-stimulated DNA binding activity of NF-kappaB p65 C38S mutant expressed in HeLa cells at 10 ug/mL hrs by EMSA; assay type: cell-based
[4] = Inhibition of DNA binding activity of NF-kappaB p50 C62S mutant
[5] = biological target: Transcription factor p65 (Homo sapiens) (UniProt Q04206); assay: Inhibition of TNF-alpha-stimulated DNA binding activity of wild type NF-kappaB p65 expressed in HeLa cells at 10 ug/mL by EMSA; assay type: cell-based
[6] = system: Transcription factor p65 (Homo sapiens), Q04206 [C38S]; assay: Inhibition of DNA binding activity of full-length recombinant NF-kappaB p65 Rel subunit C38S mutant at 10 uM by EMSA
[7] = biological target: T1, Nuclear factor NF-kappa-B p105 subunit (Homo sapiens) (UniProt P19838); assay: Inhibition of DNA binding activity of wild type NF-kappaB p50
T1 sequence (whole entry): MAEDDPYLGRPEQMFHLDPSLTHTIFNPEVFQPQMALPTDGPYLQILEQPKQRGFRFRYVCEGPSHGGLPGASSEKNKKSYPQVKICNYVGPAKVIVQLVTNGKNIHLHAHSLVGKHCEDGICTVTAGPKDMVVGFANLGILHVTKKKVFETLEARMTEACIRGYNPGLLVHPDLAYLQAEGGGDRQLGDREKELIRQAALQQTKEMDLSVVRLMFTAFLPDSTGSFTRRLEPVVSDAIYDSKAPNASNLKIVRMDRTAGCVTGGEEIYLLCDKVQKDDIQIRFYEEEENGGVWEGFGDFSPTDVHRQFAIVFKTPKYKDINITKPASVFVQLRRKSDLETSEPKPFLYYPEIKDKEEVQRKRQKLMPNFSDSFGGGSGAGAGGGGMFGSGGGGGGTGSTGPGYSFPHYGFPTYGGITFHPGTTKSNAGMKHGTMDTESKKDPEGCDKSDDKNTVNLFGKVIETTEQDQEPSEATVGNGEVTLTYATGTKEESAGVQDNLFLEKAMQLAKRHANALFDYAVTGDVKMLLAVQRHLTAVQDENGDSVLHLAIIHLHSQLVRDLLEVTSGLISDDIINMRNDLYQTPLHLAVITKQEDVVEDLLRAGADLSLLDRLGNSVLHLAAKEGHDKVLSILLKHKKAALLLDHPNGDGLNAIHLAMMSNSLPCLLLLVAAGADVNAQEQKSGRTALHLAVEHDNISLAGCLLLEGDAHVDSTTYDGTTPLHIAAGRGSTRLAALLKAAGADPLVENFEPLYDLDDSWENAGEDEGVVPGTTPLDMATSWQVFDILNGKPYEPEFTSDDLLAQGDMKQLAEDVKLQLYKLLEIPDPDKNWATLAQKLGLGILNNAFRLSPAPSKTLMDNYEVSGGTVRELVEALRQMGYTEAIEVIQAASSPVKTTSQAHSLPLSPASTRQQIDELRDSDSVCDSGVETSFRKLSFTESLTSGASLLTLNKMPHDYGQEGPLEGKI

[8] = Inhibition of DNA binding activity of wild type NF-kappaB cRel (1-307)
[9] = biological target: T1, Nuclear factor NF-kappa-B p105 subunit (Homo sapiens); assay: Inhibition of DNA binding activity of wild type NF-kappaB p50 by MALDI-TOF MS analysis
[10] = system: T2, Proto-oncogene c-Rel (Homo sapiens), Q04864 [C27S]; assay: Inhibition of DNA binding activity of NF-kappaB cRel (1-307) C27S mutant
T2 sequence (whole entry): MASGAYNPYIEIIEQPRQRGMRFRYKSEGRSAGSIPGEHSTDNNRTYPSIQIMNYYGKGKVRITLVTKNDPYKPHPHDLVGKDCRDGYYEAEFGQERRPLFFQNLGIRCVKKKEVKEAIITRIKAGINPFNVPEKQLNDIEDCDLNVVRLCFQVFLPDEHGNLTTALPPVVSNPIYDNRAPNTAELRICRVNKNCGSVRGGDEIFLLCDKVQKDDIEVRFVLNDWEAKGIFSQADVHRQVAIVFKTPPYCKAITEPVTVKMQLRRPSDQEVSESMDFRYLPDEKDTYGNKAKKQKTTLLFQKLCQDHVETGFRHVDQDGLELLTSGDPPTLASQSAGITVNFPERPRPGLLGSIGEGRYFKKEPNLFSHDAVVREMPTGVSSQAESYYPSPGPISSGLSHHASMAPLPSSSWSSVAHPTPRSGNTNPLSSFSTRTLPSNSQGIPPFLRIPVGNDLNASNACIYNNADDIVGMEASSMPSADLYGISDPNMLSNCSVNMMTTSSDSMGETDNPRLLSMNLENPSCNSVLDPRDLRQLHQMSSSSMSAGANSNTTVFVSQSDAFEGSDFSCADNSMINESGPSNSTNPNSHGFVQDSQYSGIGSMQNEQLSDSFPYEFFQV

[11] = biological target: Albumin (Bos taurus, UniProt P02769); assay: Binding affinity to bovine serum albumin; assay type: ADME; settings: cattle, isolated protein
[12] = system: HeLa; assay: Decrease of TNF-alpha-stimulated endogenous NF-kappaB p65 level in human HeLa cell nucleus at 10 ug/mL by Western blot analysis; assay type: functional, cell-based
[13] = system: Transcription factor p65 (Homo sapiens), Q04206 [C120S]; assay: Inhibition of DNA binding activity of NF-kappaB p65 (1-325) C120S mutant by EMSA
[14] = biological target: Transcription factor p65 (Homo sapiens) (UniProt Q04206); assay: Inhibition of DNA binding activity of full-length recombinant NF-kappaB p65 Rel subunit at 10 uM by EMSA
[15] = system: Transcription factor p65 (Homo sapiens), Q04206 [C38S]; assay: Inhibition of DNA binding activity of NF-kappaB p65 (1-325) C38S mutant by EMSA
[16] = Inhibition of DNA binding activity of NF-kappaB p50 C62S mutant by MALDI-TOF MS analysis
[17] = system: Transcription factor p65 (Homo sapiens), Q04206 [C120S]; assay: Inhibition of DNA binding activity of NF-kappaB p65 (1-325) C120S mutant by MALDI-TOF MS analysis
[18] = Inhibition of DNA binding activity of NF-kappaB p50 C144S mutant by MALDI-TOF MS analysis
[19] = Binding affinity to NF-kappaB p65 (1-325) Rel subunit at 100 uM by surface plasmon resonance analysis
[20] = biological target: T3, Nuclear factor NF-kappa-B p100 subunit (Homo sapiens) (UniProt Q00653); assay: Inhibition of DNA binding activity of NF-kappaB p52
T3 sequence (whole entry): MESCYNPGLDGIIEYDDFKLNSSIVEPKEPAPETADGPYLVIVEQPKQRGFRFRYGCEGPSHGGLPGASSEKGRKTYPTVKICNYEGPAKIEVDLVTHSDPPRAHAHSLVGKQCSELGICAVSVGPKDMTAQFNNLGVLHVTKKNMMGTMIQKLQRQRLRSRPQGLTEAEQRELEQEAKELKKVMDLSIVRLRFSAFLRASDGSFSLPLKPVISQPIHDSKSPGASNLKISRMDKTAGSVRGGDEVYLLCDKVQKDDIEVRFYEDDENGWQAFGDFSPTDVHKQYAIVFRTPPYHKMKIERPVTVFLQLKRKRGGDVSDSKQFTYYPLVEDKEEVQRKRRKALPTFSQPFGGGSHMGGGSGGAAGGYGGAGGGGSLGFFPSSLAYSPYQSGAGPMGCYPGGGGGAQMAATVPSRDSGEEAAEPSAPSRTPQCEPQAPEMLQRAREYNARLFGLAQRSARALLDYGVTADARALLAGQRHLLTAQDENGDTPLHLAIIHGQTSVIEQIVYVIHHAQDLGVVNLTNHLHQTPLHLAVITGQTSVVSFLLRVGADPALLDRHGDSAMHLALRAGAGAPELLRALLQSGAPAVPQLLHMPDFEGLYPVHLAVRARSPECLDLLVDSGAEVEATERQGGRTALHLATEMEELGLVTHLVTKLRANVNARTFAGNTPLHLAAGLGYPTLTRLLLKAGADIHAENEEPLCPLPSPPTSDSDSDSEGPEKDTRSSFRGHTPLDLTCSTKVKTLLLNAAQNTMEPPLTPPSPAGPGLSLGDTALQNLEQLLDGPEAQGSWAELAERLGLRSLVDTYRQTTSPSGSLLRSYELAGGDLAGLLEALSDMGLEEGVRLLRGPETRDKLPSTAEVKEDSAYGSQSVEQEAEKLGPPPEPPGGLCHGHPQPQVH

[21] = Inhibition of DNA binding activity of wild type NF-kappaB cRel (1-307) by MALDI-TOF MS analysis
[22] = system: HeLa; assay: Decrease of TNF-alpha-stimulated NF-kappaB p65 C38S mutant level in human HeLa cell nucleus at 10 ug/mL by Western blot analysis; assay type: functional, cell-based
[23] = system: HeLa; assay: Decrease of TNF-alpha-stimulated wild type NF-kappaB p65 level in human HeLa cell nucleus at 10 ug/mL by Western blot analysis; assay type: functional, cell-based
[24] = system: T2, Proto-oncogene c-Rel (Homo sapiens), Q04864 [C27S]; assay: Inhibition of DNA binding activity of NF-kappaB cRel (1-307) C27S mutant by MALDI-TOF MS analysis

Sequence of Transcription factor p65 (Homo sapiens), Q04206 [C38S] (Q04206 whole entry C38S): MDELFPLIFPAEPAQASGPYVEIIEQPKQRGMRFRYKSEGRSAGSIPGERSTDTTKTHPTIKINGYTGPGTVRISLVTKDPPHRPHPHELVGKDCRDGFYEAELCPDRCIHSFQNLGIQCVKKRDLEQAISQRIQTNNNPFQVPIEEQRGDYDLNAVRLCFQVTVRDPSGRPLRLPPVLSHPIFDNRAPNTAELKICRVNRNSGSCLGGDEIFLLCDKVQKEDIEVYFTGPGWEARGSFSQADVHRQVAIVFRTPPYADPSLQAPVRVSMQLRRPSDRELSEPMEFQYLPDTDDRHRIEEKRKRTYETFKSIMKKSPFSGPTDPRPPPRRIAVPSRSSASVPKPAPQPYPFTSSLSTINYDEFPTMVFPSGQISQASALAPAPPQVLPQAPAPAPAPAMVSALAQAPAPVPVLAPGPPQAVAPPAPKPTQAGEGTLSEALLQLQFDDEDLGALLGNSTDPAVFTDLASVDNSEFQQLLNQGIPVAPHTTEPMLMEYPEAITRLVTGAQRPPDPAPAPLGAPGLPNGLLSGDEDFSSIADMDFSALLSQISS
Sequence of Transcription factor p65 (Homo sapiens), Q04206 [C120S] (Q04206 whole entry C120S): as the sequence (Q04206 whole entry C38S) above, with S38C, C120S counted along it
Sequence of Transcription factor p65 (Homo sapiens) (Q04206 whole entry): as the sequence (Q04206 whole entry C38S) above, with S38C counted along it
Sequence of Albumin (P02769 whole entry): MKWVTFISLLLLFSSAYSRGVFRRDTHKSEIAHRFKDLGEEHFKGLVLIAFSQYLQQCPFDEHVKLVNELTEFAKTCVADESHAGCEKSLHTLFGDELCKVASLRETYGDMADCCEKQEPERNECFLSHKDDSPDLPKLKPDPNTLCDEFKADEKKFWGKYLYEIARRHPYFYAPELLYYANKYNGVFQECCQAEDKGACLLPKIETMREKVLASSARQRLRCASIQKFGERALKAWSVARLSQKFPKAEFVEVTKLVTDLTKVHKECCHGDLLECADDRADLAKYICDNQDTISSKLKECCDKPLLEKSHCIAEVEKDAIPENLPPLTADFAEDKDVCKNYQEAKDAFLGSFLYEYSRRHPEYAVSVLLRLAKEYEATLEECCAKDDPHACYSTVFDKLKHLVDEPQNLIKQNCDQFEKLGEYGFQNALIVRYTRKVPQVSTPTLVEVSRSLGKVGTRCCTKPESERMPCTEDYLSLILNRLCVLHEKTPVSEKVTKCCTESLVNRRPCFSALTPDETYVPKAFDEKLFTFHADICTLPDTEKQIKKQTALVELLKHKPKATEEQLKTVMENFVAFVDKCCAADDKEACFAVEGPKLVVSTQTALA

Activity [1]: Active | Activity [2]: inactive | Activity [3]: inactive | Activity [4]: inactive | Activity [5]: Active | Activity [6]: inactive | Activity [7]: Active | Activity [8]: Active | Activity [9]: Active | Activity [10]: inactive | Activity [11]: Not Active | Activity [13]: Active | Activity [14]: inactive | Activity [15]: inactive | Activity [16]: inactive | Activity [17]: Active | Activity [18]: inactive | Activity [19]: Active | Activity [20]: inactive | Activity [21]: Active | Activity [24]: inactive
Compound: O=C(NC1=CC(=O)[C@H]2O[C@H]2[C@H]1O)c1ccccc1O [DEHYDROXYMETHYLEPOXYQUINOMICIN]
Activity [12]: Active | Activity [22]: inactive | Activity [23]: Active
